In assay [1] the test system is MDA-MB-435. The assay can be described thus: Anticancer activity against Homo sapiens (human) MDA-MB-435 cells assessed as inhibition of cell survival after 72 hr by MTT assay. It counts as functional, cell-based. Conditions: MDA-MB-435, 72 h. On the technique in general: Tetrazolium dyes change colour on reduction, which living cells bring about.
Assay [2] has as its system HCT-8. The assay can be described thus: Anticancer activity against Homo sapiens (human) HCT8 cells assessed as inhibition of cell survival after 72 hr by MTT assay. Conditions: HCT-8, 72 h. It is filed as functional, cell-based.
For assay [3], the system named is SF-295. The assay can be described thus: Anticancer activity against Homo sapiens (human) SF295 cells assessed as inhibition of cell survival after 72 hr by MTT assay. Conditions: SF-295, 72 h. It is filed as functional, cell-based.
Another assay concerns HL-60. The assay can be described thus: Anticancer activity against Homo sapiens (human) HL60 cells assessed as inhibition of cell survival after 72 hr by MTT assay. It counts as functional, cell-based. Conditions: HL-60, 72 h.
The subject of assay [4] is MDA-MB-435. The assay can be described thus: Anticancer activity against Homo sapiens (human) MDA-MB-435 cells assessed as growth inhibition at 25 ug/ml after 72 hr by MTT assay. It counts as functional. Conditions: MDA-MB-435, 72 h, read-out: GI.
The subject of assay [5] is HCT-8. The assay can be described thus: Anticancer activity against Homo sapiens (human) HCT8 cells assessed as growth inhibition at 25 ug/ml after 72 hr by MTT assay. It counts as functional. Conditions: HCT-8, 72 h, read-out: GI.
Assay [6] has as its system SF-295. The assay can be described thus: Anticancer activity against Homo sapiens (human) SF295 cells assessed as growth inhibition at 25 ug/ml after 72 hr by MTT assay. It counts as functional. As to conditions: SF-295, 72 h, read-out: GI.
Assay [7] relates to MDA-MB-435. The assay can be described thus: Anticancer activity against Homo sapiens (human) MDA-MB-435 cells assessed as growth inhibition at 0.3 ug/ml after 72 hr by MTT assay. It counts as functional. Conditions: MDA-MB-435, 72 h, read-out: GI.
For assay [8], the system named is HCT-8. The assay can be described thus: Anticancer activity against Homo sapiens (human) HCT8 cells assessed as growth inhibition at 0.3 ug/ml after 72 hr by MTT assay. As to conditions: HCT-8, 72 h, read-out: GI. It counts as functional.
The subject of assay [9] is SF-295. The assay can be described thus: Anticancer activity against Homo sapiens (human) SF295 cells assessed as growth inhibition at 0.3 ug/ml after 72 hr by MTT assay. It counts as functional. As to conditions: SF-295, 72 h, read-out: GI.

Molecules are shown by their SMILES. Converted amounts (≈) assume the structure as drawn.

Usually IC50 stands for the concentration that inhibits the measured activity by half. In the case of `O=C1CSC(=O)N1Cc1c2ccccc2nc2ccccc12`, the IC50 in the assay with MDA-MB-435 [1], in the assay with HCT-8 [2], in the assay on SF-295 [3] and with HL-60 was greater than 25 µg/mL throughout. Further, the inhibition of growth at 25 µg/mL came to 0% with MDA-MB-435 [4], 42% in the assay with HCT-8 [5] and 32.8% in the assay on SF-295 [6].
Turning to `CS(=O)(=O)c1ccc(/C=C2\SC(=O)N(Cc3c4ccccc4nc4ccccc34)C2=O)cc1`, the IC50 with MDA-MB-435 [1], in the assay with HCT-8 [2], in the assay with SF-295 [3] and in the assay on HL-60 was greater than 25 µg/mL in each case. For the same molecule, the inhibition of growth at 25 µg/mL with MDA-MB-435 [4] came out at 12.9%; in the assay with HCT-8 [5], 64.3%; in the assay with SF-295 [6], 44.3%.
Consider `O=C1S/C(=C\c2ccc(Cl)cc2)C(=O)N1Cc1c2ccccc2nc2ccccc12`, for which the 50% inhibitory concentration (IC50) in the assay on MDA-MB-435 [1], in the assay with HCT-8 [2], with SF-295 [3] and in the assay on HL-60 was greater than 25 µg/mL throughout. In addition, the results for the inhibition of growth at 25 µg/mL in the assay with MDA-MB-435 [4], with HCT-8 [5] and with SF-295 [6] were 0%, 37.8% and 31.3%, respectively.
Regarding `O=C1S/C(=C\c2c3ccccc3nc3ccccc23)C(=O)N1Cc1c2ccccc2nc2ccccc12`, the IC50 with MDA-MB-435 [1] was 7.01 µg/mL (≈ 14.1 µM); with HCT-8 [2], 4.45 µg/mL (≈ 8.94 µM); with SF-295 [3] it was 4.44 µg/mL (≈ 8.92 µM); with HL-60, greater than 25 µg/mL. Also, the inhibition of growth at 25 µg/mL in the assay with MDA-MB-435 [4] stood at 95.9%; with HCT-8 [5] it was 92.4%; in the assay with SF-295 [6] it was 76.7%.
With `COc1ccc(/C=C2\SC(=O)N(Cc3c4ccccc4nc4ccccc34)C2=O)cc1`, the IC50 with MDA-MB-435 [1] was greater than 25 µg/mL; in the assay on HCT-8 [2] it was 19.3 µg/mL (≈ 45.2 µM); with SF-295 [3], greater than 25 µg/mL; in the assay on HL-60, greater than 25 µg/mL. Also, the values for the inhibition of growth at 25 µg/mL with MDA-MB-435 [4], in the assay on HCT-8 [5] and with SF-295 [6] were 84.2%, 86.7% and 59.5%, respectively.
Take `COc1ccc(/C=C2\SC(=O)N(Cc3c4ccccc4nc4ccccc34)C2=O)cc1Br`: the IC50 in the assay on MDA-MB-435 [1], with HCT-8 [2], with SF-295 [3] and in the assay on HL-60 was greater than 25 µg/mL in each case. For the same molecule, the inhibition of growth at 25 µg/mL in the assay on MDA-MB-435 [4] was found to be 53%; with HCT-8 [5] it was 72.5%; in the assay on SF-295 [6] it was 48%.
As for `COc1cccc2c1C(=O)c1c(O)c3c(c(O)c1C2=O)C[C@@](O)(C(=O)CO)C[C@@H]3O[C@H]1C[C@H](N)[C@H](O)[C@H](C)O1` [DOXORUBICIN], the IC50 in the assay with MDA-MB-435 [1] worked out at 0.24 µg/mL (≈ 0.442 µM); in the assay on SF-295 [3] it was 0.48 µg/mL (≈ 0.883 µM). For the same molecule, the inhibition of growth at 0.3 µg/mL with MDA-MB-435 [7] was 93.6%; in the assay on HCT-8 [8] it was 95.2%; in the assay on SF-295 [9] it was 91.1%.
On to `Cc1ccc(/C=C2\SC(=O)N(Cc3c4ccccc4nc4ccccc34)C2=O)cc1`, for which the IC50 in the assay on MDA-MB-435 [1], in the assay with HCT-8 [2], in the assay with SF-295 [3] and in the assay with HL-60 was greater than 25 µg/mL each time. Moreover, the inhibition of growth at 25 µg/mL in the assay on MDA-MB-435 [4] turned out to be 31.2%; with HCT-8 [5], 51.3%; in the assay on SF-295 [6], 29.9%.
On to `O=C1S/C(=C\c2ccc(Br)cc2)C(=O)N1Cc1c2ccccc2nc2ccccc12`, for which the IC50 in the assay with MDA-MB-435 [1] is greater than 25 µg/mL; in the assay with HCT-8 [2], 20.6 µg/mL (≈ 43.4 µM); in the assay on SF-295 [3], greater than 25 µg/mL; in the assay with HL-60, 19.5 µg/mL (≈ 41 µM). In addition, the figures for the inhibition of growth at 25 µg/mL in the assay on MDA-MB-435 [4], in the assay with HCT-8 [5] and with SF-295 [6] were 85.3%, 96.6% and 62.2%, respectively.

The record behind these values is ChEMBL document CHEMBL3044963, “Synthesis and in vitro anticancer activity of novel thiazacridine derivatives” (Med Chem Res, 2013).
